Reference: paper PMC5905120, “An innovative immunotherapeutic strategy for ovarian cancer: CLEC10A and glycomimetic peptides” (Journal for Immunotherapy of Cancer, 2018)
Like-named read-outs stand apart in the source and are kept apart here. Bridges are numbered along the chain shown (N, C = ends). Roman numbers before positions name the chains, in order. Where no end group is shown, it is not given here.

Legend:
DC-SIGN = test: Solid-phase binding to DC-SIGN; set-up: species or system human; conditions: Fig. 2b
Experimental: Solid-phase binding assays were performed with streptavidin-, protein A/G-, or Nickel-coated microtiter plates (Pierce). His-tagged or Fc-fusion recombinant receptors (R&D Systems, Minneapolis, MN) were reconstituted in PBS. Sufficient receptors were added to wells to saturate the coating. His-tagged receptors were added to each well at a 5-fold excess over the stated capacity of the Ni coating to minimize non-specific binding of the peptide. Wells were washed three times with binding buffer (25 mM Tris HCl, pH 7.4, 150 mM NaCl, 0.05% Tween-20) to remove unbound receptor and 50 μL of 2 μM biotinylated peptide in binding buffer were added and allowed to incubate for 1 h. The wells were washed four times with binding buffer and then incubated with 50 μL of 1 μg/mL streptavidin conjugated with peroxidase (Sigma-Aldrich) for 1 h. […] After several minutes to allow color development, the reaction was stopped with 50 μL 1 M H3PO4 and absorbance was measured at 450 nm. Bound streptavidin was quantitated by the specific activity of peroxidase (absorbance/ng protein conjugate/min) under the conditions of the assay.
Solid-phase binding assays were performed with recombinant human receptors. […] After extensive washing, the bound receptor was measured by peroxidase conjugated to a receptor-specific antibody. […]

human ASGPR-1 = molecular target: T1, human ASGPR-1 (Homo sapiens, UniProt P07306); test: Solid-phase binding to recombinant human ASGPR-1; conditions: Fig. 2a, representative of 3 independent experiments
T1 construct: purchased R&D Systems
T1 sequence (P07306 62-291 limits assumed): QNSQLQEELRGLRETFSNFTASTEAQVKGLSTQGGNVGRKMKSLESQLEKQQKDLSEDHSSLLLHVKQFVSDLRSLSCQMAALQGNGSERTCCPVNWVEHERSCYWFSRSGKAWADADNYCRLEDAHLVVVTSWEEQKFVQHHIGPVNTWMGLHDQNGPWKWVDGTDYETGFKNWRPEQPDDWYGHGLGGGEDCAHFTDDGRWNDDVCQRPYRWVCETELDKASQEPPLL
Experimental: Solid-phase binding assays were performed with streptavidin-, protein A/G-, or Nickel-coated microtiter plates (Pierce). His-tagged or Fc-fusion recombinant receptors (R&D Systems, Minneapolis, MN) were reconstituted in PBS. Sufficient receptors were added to wells to saturate the coating. His-tagged receptors were added to each well at a 5-fold excess over the stated capacity of the Ni coating to minimize non-specific binding of the peptide. Wells were washed three times with binding buffer (25 mM Tris HCl, pH 7.4, 150 mM NaCl, 0.05% Tween-20) to remove unbound receptor and 50 μL of 2 μM biotinylated peptide in binding buffer were added and allowed to incubate for 1 h. The wells were washed four times with binding buffer and then incubated with 50 μL of 1 μg/mL streptavidin conjugated with peroxidase (Sigma-Aldrich) for 1 h. The wells were washed five times with binding buffer and 50 μL of peroxidase substrate (1-Step™ Ultra TMB, Pierce) were added. After several minutes to allow color development, the reaction was stopped with 50 μL 1 M H3PO4 and absorbance was measured at 450 nm. Bound streptavidin was quantitated by the specific activity of peroxidase (absorbance/ng protein conjugate/min) under the conditions of the assay.
Solid-phase binding assays were performed with recombinant human receptors. Three variations of the binding assay were used in this study, all of which allowed the arms of the tetravalent peptide to have full flexibility. (i) Biotinylated peptide was bound in microtiter wells coated with streptavidin and incubated with recombinant human receptors. After extensive washing, the bound receptor was measured by peroxidase conjugated to a receptor-specific antibody. (ii) The extracellular domains of receptors, which were fused with the Fc domain of immunoglobulin IgG, were bound in wells coated with protein A/G. Biotinylated peptide was incubated with the receptors and, after extensive washing, bound peptide was measured with streptavidin conjugated with peroxidase. Or (iii), recombinant receptors with a poly-His tag were bound to Nickel-coated wells and incubated with biotinylated peptide. svL4 and sv6D contain His residues (see Table 1) and can bind to the Ni coating, which was minimized by adding sufficient poly-His-tagged receptor to saturate the Ni coating.

[1] = test system: serum cytokines/chemokines (mouse L-308 membrane array); assay type: in vivo; conditions: 0.1 nmole/g s.c., 4 h, three animals pooled
Experimental: At 4 h post dose, terminal blood was pooled from 3 animals per group and prepared for serum. Shown in Fig. S3 are the relative levels of cytokines/chemokines in sera in response to injections of 0.1 (orange bars) or 1.0 nmole/g (grey bars) svL4 as compared with animals injected with PBS (blue).

[2] = test system: TREG cells within melanoma tumors; test: TREG cells in tumors of melanoma-bearing mice; assay type: in vivo, mouse; conditions: preliminary (data not shown)
[3] = test system: peritoneal low FSc and low SSc cells; test: Peritoneal small-cell population in 4T1 tumor-bearing Balb/c mice; assay type: in vivo, mouse (Balb/c); conditions: 1 nmole/g
Experimental: After tumors had reached a volume of at least 500 mm^3, the peritoneal population of low FSc and low SSc cells was minimal (Fig. S2a). […] We conclude that this population is possibly progenitor cells and that additional treatments would lead to maturation of this population, as observed with healthy animals.
Fig. S2. Increase in the population of small cells in the peritoneal cavity of Balb/c mice bearing tumors of breast 4T1 cancer cell line. svL4 (1 nmole/g) was injected on day 0 and day 2, with analysis 24 h after each injection. a) Pseudocolor scatter plots of peritoneal cells from untreated or treated mice on day 3, 24 h after the second injection. […] Untreated animals, blue; treated animals, orange. Peritoneal cells from 3 animals were pooled and analyzed in triplicate. c) Histograms of normalized SSc vs. FSc for samples of peritoneal cells from Balb/c mice on day 3, from Fig. S2b, i.e., 24 h after the second injection of svL4. Blue trace, untreated animals; red trace, svL4-treated animals.

[4] = test system: serum cytokines/chemokines (mouse L-308 membrane array); test: Serum cytokine array, healthy Balb/c mice; assay type: in vivo, mouse (Balb/c)
Experimental: Ratios of treated vs. untreated samples obtained in a separate experiment with healthy Balb/c mice are shown in the right-hand column of Table 3 for comparison. The most significant increase in the serum of healthy mice treated with the peptide was in the amount of soluble HVEM (Herpes virus entry mediator, also designated TNFRSF14), which was a prominent protein in serum and increased approximately 10-fold within 4 h after treatment. In the tumor-bearing mice, the level of soluble HVEM in treated animals was similar to that in treated healthy mice, but the level in untreated animals was higher than that in healthy control mice.

[5] = * control value negligible or low
[6] = healthy mice, separate experiment, three animals pooled
[7] = healthy mice, separate experiment, three animals pooled, * control value negligible or low

I: VQATQSNQHTPRGGGSKK-NH2 / II: VQATQSNQHTPRGGGSK / III: VQATQSNQHTPRGGGS / IV: VQATQSNQHTPRGGGS (amide I:17-IV:C, I:18-II:C, II:17-III:C) [svL4]
binding to DC-SIGN (DC-SIGN): did not bind significantly
binding to ASGPR-1 (human ASGPR-1): also to ASGPR-1
ratio treated/untreated serum CCL1 [1]: 2.5
ratio treated/untreated serum IL-1α [1]: 2.7
ratio treated/untreated serum IL-12p70 [1]: 3.5
ratio treated/untreated serum IL-16 [1]: 4
ratio treated/untreated serum IL-27 [1]: 4.5
ratio treated/untreated serum IL-28 [1]: 4.3
ratio treated/untreated serum IL-31 [1]: 3.5
ratio treated/untreated serum Lymphotactin [1]: ~ 3
ratio treated/untreated serum MIP-2/CXCL2 [1]: ~ 6
ratio treated/untreated serum Pentraxin3 [1]: ~ 4
ratio treated/untreated serum SPARC [1]: ~ 5
ratio treated/untreated serum TIMP-2 [1]: 3
ratio treated/untreated serum TLR2 [1]: 4.2
ratio treated/untreated serum sHVEM [1]: ~ 2
ratio treated/untreated serum IFN-γ [1, 5]: High^*
ratio treated/untreated serum Lymphotoxin-α [1, 5]: 12.5*
ratio treated/untreated serum TNFα [1, 5]: 45*
TREG cells within tumors [2]: dramatic reduction in TREG cells
size of small-cell population ([3]; 24 h after first injection): not changed significantly
CD3^+ fraction of small cells ([3]; after second injection): 0.5%
CD19^+ fraction of small cells ([3]; after second injection): about 3%
size of small-cell population ([3]; within 24 h after second injection): dramatic increase
ratio treated/untreated serum CCL1 [4, 6]: No change
ratio treated/untreated serum IFN-γ [4, 6]: No change
ratio treated/untreated serum IL-1α [4, 6]: 0.86
ratio treated/untreated serum IL-12p70 [4, 6]: No change
ratio treated/untreated serum IL-16 [4, 6]: 0.57
ratio treated/untreated serum IL-27 [4, 6]: 0.55
ratio treated/untreated serum Lymphotactin [4, 6]: 2.6
ratio treated/untreated serum Lymphotoxin-α [4, 6]: 0.74
ratio treated/untreated serum MIP-2/CXCL2 [4, 6]: No change
ratio treated/untreated serum Pentraxin3 [4, 6]: 0.21
ratio treated/untreated serum SPARC [4, 6]: No change
ratio treated/untreated serum TIMP-2 [4, 6]: 0.45
ratio treated/untreated serum TLR2 [4, 6]: 0.37
ratio treated/untreated serum TNFα [4, 6]: 0.21
ratio treated/untreated serum sHVEM [4, 6]: 10
ratio treated/untreated serum IL-28 [4, 7]: High*
ratio treated/untreated serum IL-31 [4, 7]: High*
increase of soluble HVEM in serum ([4]; within 4 h after treatment): approximately 10 fold
